Data as given in US20240156790A1, “COMPOUNDS, COMPOSITIONS, AND METHODS FOR MODULATING FERROPTOSIS AND TREATING EXCITOTOXIC DISORDERS” (THE TRUSTEES OF COLUMBIA UNIVERSITY IN THE CITY OF NEW YORK, priority 2018, published 2024).
“Also recorded” adds a separate entry of the source.

What was measured:
HT-1080 cells = assay: Cell viability assays in HT-1080 cells, ferroptosis induced by IKE or RSL3 (Example 8); type: cell-based; conditions: for IC50: Homo sapiens, HT-1080, 48 h
Description: Cell culture assays were incubated at 37° C. with 5% CO2. HT-1080 cells were grown in DMEM (Corning) supplemented with 10% FBS (Life Technologies), 1% Penicillin-Streptomycin 10,000 U/mL (Gibco), and 1% MEM Non-Essential Amino Acids Solution 100× (Gibco). For cell viability assays, cells were trypsinized, counted, and seeded into 384-well white polypropylene plates at 1,000 cells/well, unless otherwise specified. After allowing cells to adhere overnight, compounds in DMSO stocks were arrayed in a 16-point dilution series prepared in a mother plate, and treated from a daughter plate, [DMSO]=0.28%. After 24 or 48 h, 50% CellTiter-Glo (Promega) 50% cell culture medium was added to each well and incubated at room temperature with shaking for 15 min. Luminescence was measured using a Victor X5 plate reader (PerkinElmer). All cell viability data were normalized to the DMSO vehicle condition. […] All 384w measurements were performed in triplicate
We first evaluated the efficacy of four pyridine analogs, TH-2-9-1, TH-2-31, TH-2-37-1, and TH-2-37-2, in suppressing ferroptosis induced by IKE and RSL3 in HT-1080 cells. […] We sought to determine whether incorporation of pyridine changed stability in mouse liver microsomes.

[1] = Microsomal Stability Assay (Examples 6 and 8); type: in vitro ADME, mouse; conditions: for microsomal stability / half-life, in words: assessed over two hours; for half-life at 20 µM: CD-1, mouse, liver microsomes, pH 7.4, text, read-out: half-life in mouse liver microsomes
Description: (§1) To a 96-well polypropylene plate was added phosphate buffer (182.2 μL, pH 7.4, 100 mM) followed by addition of NADPH-regenerating system solution A (10 μL), and NADPH regenerating system solution B (2 μL) (Corning Gentest 3P NADPH regenerating system solution A (#451220) and B (#451200)). A stock solution of analog (0.8 μL. 5 mM) or fer-1 (positive control) was added and the mixture was warmed to 37° C. for 5 min. Mouse microsomes (CD-1, 20 mg/mL, Life Technologies) (5 μL, thawed in 37° C. water bath before use) were added. The resulting reaction mixture was kept at 37° C. with gentle agitation for the duration of the experiment. At selected time points (0, 1, 5, 10, 20, 30, 60 and 120 min) aliquots (15 μL) were withdrawn from the plate and quenched upon addition to cold methanol (60 μL), containing an internal standard (5 μM) in a separate 96-well polypropylene plate. At the completion of the final time-point, the samples were centrifuged at 4,000 rpm for 5 min at 4° C. The supernatant (40 μL) was withdrawn and transferred to a sample vial with insert. The samples were analyzed by LC-MS. LC-MS analysis was performed on a platform comprising a Thermo Scientific Dionex Ultimate 3000 and a Bruker amaZon SL equipped with an electrospray ionization source controlled by Bruker Hystar 3.2. Chromatographic separation was performed by injecting 5 μL of the sample onto an Agilent Eclipse Plus C18 column (2.1×50 mm, 3.5 μm) maintained at 20° C. The flow rate was maintained at 400 μL/min. The initial flow conditions were 80% solvent A (water containing 0.1% acetic acid) and 20% solvent B (methanol containing 0.1% acetic acid). Solvent B was raised to 80% over 0.50 min by 1.50 min. Solvent B was raised to 100% by 5.00 min and held there for 3.25 min. […] All analogs were detected in positive mode as [M+H]*. The percent of compound remaining at each time-point was calculated as the ratio of the integrated compound peak over the internal standard peak and standardized to the t=0 time-point. Values were plotted in GraphPad Prism 9 and fit with a one phase decay.
as §1, with “and NADPH-regenerating” for “and NADPH regenerating”, “rpm (1872 g)” for “rpm”, “[M+H]*. […]” for “[M+H]*. The percent of compound remaining at each time-point was calculated as the ratio of the integrated compound peak over the internal standard peak and standardized to the t=0 time-point. Values were plotted in GraphPad Prism 9 and fit with a one phase decay.”

[2] = TH-2-31, TH-4-55-2, TH-4-67 PK Study (IP, IV, PO; plasma and brain); type: in vivo, C57BL/6 mice; conditions: mouse, in vivo
Description: C57BL/6 mice (8-weeks of age and ˜25 g weight) were weighed before injection and divided into groups of two male and female mice per cage. Compound was dissolved in 5% DMSO/95% of 1:1 [(65% v/v of 25% w/v 2-hydroxypropyl-3-cyclodextrin (Cayman Chemical) dissolved in 20% EtOH, 30% v/v Poly(ethylene glycol)-400 (Sigma Aldrich 202398), 5% v/v Tween 80 (Fluka 59924)):MilliQ water] to create a 2 mg/mL solution. The same formulation without compound was used as a vehicle control. The solution was sterilized using a […] Steriflip filter unit (Thomas Scientific 1189Q46). Mice were dosed IP, IV, and PO routes of administration and euthanized by CO2 asphyxiation for 3 min at 0, 1, 2, 4, 8, and 24 h after administration. To ensure that the vehicle was well-tolerated 4 mice were treated with vehicle and euthanized 4 h after administration. ˜0.5 mL of blood was collected via cardiac puncture and immediately put in K3 EDTA microtubes ([…] 41.1504.105) and kept on ice. Organs were harvested, placed in Eppendorf tubes, and frozen on dry ice. Blood samples were centrifuged for 10 min at 2,100×g at 4° C., then plasma was transferred to a clean tube and frozen on dry ice. Organ samples were weighed and placed in hard tissue homogenizing tubes (Omni International 19-628) and a volume of DEPC-treated nuclease-free water (IBI Scientific IB42200) was added to make a 500 mg/mL solution and homogenized using the Omni Bead Ruptor 4 at speed 5 for 30 seconds. Compound was extracted from plasma or organ homogenate by adding 900 μL acetonitrile to 100 μL plasma or organ homogenate. Samples were mixed by vortexing and allowed to extract overnight at 4° C. prior to mixing for at least 5 min by rotating at room temperature, vortexing, and sonicating for at least 30 second prior to centrifugation for 10 min at 4,000×g and 4° C. The supernatant was then transferred to a glass vial and analyzed by UPLC-MS described below. The concentration of each analog was determined against a standard curve with a nonlinear fit and the data plot in GraphPad Prism 9 and fit with a one phase decay.
Samples from animal studies were analyzed via UPLC-MS using a Waters Xevo G2-Xs QTof Mass spectrometer equipped with an Acquity UPLC. Chromatographic separation was carried out at 50° C. on a Acquity UPLC BEH C18 column (1.7 μm, 2.1 mm×50 mm, pore size 130 Å) over a 4.5 min gradient elution. The flowrate was held constant at 0.8 mL/min. Mobile phase A consisted of water and mobile phase B consisted of ACN both containing 0.1% formic acid. After injection, the gradient was held at 50% A for 0.25 min. For the next minute, the gradient was ramped in a linear fashion to 100% B and held at this composition for 0.5 min. The eluent composition returned to the initial condition in 0.01 min and the column was re-equilibrated for 2.74 min before the next injection. Injection volumes were 0.5 μL (TH-2-31 40 mg/kg) and 1 μL for all other conditions. The Xevo G2-Xs was operated in positive electrospray ionization (ESI) mode. A capillary voltage and sampling cone voltage of 0.5 kV and 30 V were used. The source and desolvation temperatures were kept at 120° C. and […], respectively. Nitrogen was used as the desolvation gas with a flowrate of 750 L/hr. The protonated molecular ion of leucine encephalin ([M+H]^+, m/z 556.2771 was used as a lock mass for mass accuracy and reproducibility. Leucine enkephalin was introduced to the lock mass at a concentration of 2 ng/mL (50% ACN containing 0.1% formic acid), and a flow rate of […]. To avoid signal saturation, the signal transmission was attenuated to <10%, based off the signal intensity of the highest standard concentration for the duration of the run. The data was collected over the mass range m/z 50 to 1200 Da with an acquisition time of 0.1 seconds per scan. The retention time for each analog is detailed below. […]

[3] = test system: N27 rat dopaminergic cells; assay: Suppression of ferroptosis induced by RSL3 in N27 cells (CellTiter-Glo viability); type: cell-based; conditions: Rattus norvegicus, N27, 24 h, Table 3; ^d 24 hr treatment, 1,000 cells/well seeded; read-out: IC50
[4] = ^b 2 μM IKE, 48 hours, 1,000 cells/well
[5] = ^c 0.2 μM RSL3, 48 hours, 1,000 cells/well

half-life at 20 µM [1] | Structure (SMILES) | potency relative to fer-1 at suppressing ferroptosis, in words (HT-1080 cells) | also measured
 | CC(C)(C)OC(=O)c1cc(NC2CCCCC2)c(NC23CC4CC(CC(C4)C2)C3)cc1Cl [AZII11, tert-butyl 4-(((3s,5s,7s)-adamantan-1-yl)amino)-2-chloro-5-(cyclohexylamino)benzoate] | less potent than fer-1 | microsomal stability / half-life, in words [1]: half-lives greater than two hours
< 1 h | CC(C)(C)OC(=O)c1cc(N)c(NC23CC4CC(CC(C4)C2)C3)cc1F [AZII78, tert-butyl 4-(((3s,5s,7s)-adamantan-1-yl)amino)-5-amino-2-fluorobenzoate] |  | 
< 1 h | Cc1cc(NC23CC4CC(CC(C4)C2)C3)c(N)cc1C(=O)OC(C)(C)C [AZIII4, tert-butyl 4-(((3s,5s,7s)-adamantan-1-yl)amino)-5-amino-2-methylbenzoate] |  | 
 | CC(C)(C)OC(=O)c1cc(NC2CCCCC2)c(NC23CC4CC(CC(C4)C2)C3)cc1F [AZIII8, tert-butyl 4-(((3s,5s,7s)-adamantan-1-yl)amino)-5-(cyclohexylamino)-2-fluorobenzoate] | more potent than fer-1 | microsomal stability / half-life, in words [1]: half-lives greater than two hours
 | Cc1cc(NC23CC4CC(CC(C4)C2)C3)c(NC2CCCCC2)cc1C(=O)OC(C)(C)C [AZIII9, tert-butyl 4-(((3s,5s,7s)-adamantan-1-yl)amino)-5-(cyclohexylamino)-2-methylbenzoate] | less potent than fer-1 | microsomal stability / half-life, in words [1]: half-lives greater than two hours; also recorded: the most stable compound tested
< 1 h | Cc1noc(-c2ccc(NC34CC5CC(CC(C5)C3)C4)c(N)c2)n1 [PHB4066, N1-((3s,5s,7s)-adamantan-1-yl)-4-(3-methyl-1,2,4-oxadiazol-5-yl)benzene-1,2-diamine] |  | 
< 1 h | Cc1noc(-c2ccc(NC3CCCCC3)c(N)c2)n1 [PHB4078, N1-cyclohexyl-4-(3-methyl-1,2,4-oxadiazol-5-yl)benzene-1,2-diamine] |  | 
< 1 h | CC(C)(C)OC(=O)c1ccc(NC2CCCCC2)c(Nc2ccccc2)c1 [PHB4081, tert-butyl 4-(cyclohexylamino)-3-(phenylamino)benzoate] |  | 
 | Cc1noc(-c2cc(NC3CCCCC3)cnc2NC2CCCCC2)n1 [TH-2-37-1, N^2,N^5-dicyclohexyl-3-(3-methyl-1,2,4-oxadiazol-5-yl)pyridine-2,5-diamine] | potencies greater than fer-1 | IC50 (HT-1080 cells; [4]): 7.5 nM; IC50 (HT-1080 cells; [5]): 4.3 nM
 | Cc1noc(-c2cc(NC(C)C)cnc2NC2CCCCC2)n1 [TH-2-37-2, N^2-cyclohexyl-N^5-isopropyl-3-(3-methyl-1,2,4-oxadiazol-5-yl)pyridine-2,5-diamine] | potencies greater than fer-1 | IC50 (HT-1080 cells; [4]): 5.4 nM; IC50 (HT-1080 cells; [5]): 3.8 nM
 | Cc1noc(-c2cnc(NC34CC5CC(CC(C5)C3)C4)c(NC3CCCCC3)c2)n1 [TH-4-100-2, N^2-((3s,5s,7s)-adamantan-1-yl)-N^3-cyclohexyl-5-(3-methyl-1,2,4-oxadiazol-5-yl) pyridine-2,3-diamine] |  | tolerability / adverse observations after dosing [2]: less impaired immediately following injection and recovered more quickly; also recorded: less impaired immediately following injection and recovered quicker; IC50 [3]: 18.9 nM
